What all share (format): in vivo
Assay [1] has as its system Pharbitis purpureum (PHBPU). The assay can be described thus: Pre-emergence herbicidal action against weed plants. To be noted: scored after 3 to 4 weeks. An excerpt: (§1) 1. Pre-emergence Herbicidal Action Against Weed Plants Seeds or rhizome sections of mono- and dicotyledonous weed plants are set out in pots of 9 to 13 cm in diameter, in sandy loam soil, and are covered with soil. The herbicides, formulated as emulsifiable concentrates or dusts, are applied to the surface of the covering earth in the form of aqueous dispersions or suspensions or emulsions, at a water application rate of 300 to 800 l/ha (converted). The pots are then maintained under glass under optimum conditions for the further cultivation of the plants. After 3 to 4 weeks under optimum growth conditions under glass, the trial plants are scored for the effect of the compounds according to the invention in comparison to compounds disclosed in the prior art. […] [table]

Assay [2] deals with Viola tricolor (VIOTR). The assay is described as above. Conditions: scored after 3 to 4 weeks.
Excerpt: as §1

Assay [3] concerns Pharbitis purpureum (PHBPU). The assay can be described thus: Post-emergence herbicidal action against weed plants. To be noted: scored after 3 to 4 weeks. How it is done: (§2) [table] 2. Post-emergence Herbicidal Action Against Weed Plants Seeds of monocotyledonous and dicotyledonous weed plants are set out in cardboard pots in sandy loam soil, covered with soil, and cultivated under glass under good growth conditions. Two to three weeks after sowing, the trial plants are treated at the three-leaf stage. The compounds according to the invention, formulated as wettable powders or as emulsifiable concentrates, are sprayed onto the surface of the green parts of the plants, at a water application rate of 600 to 800 l/ha (converted). After the trial plants have stood for 3 to 4 weeks under optimum growth conditions under glass, the action of the compounds according to the invention is scored in comparison to compounds disclosed in the prior art.

Assay [4] relates to Setaria viridis (SETVI). Described as above. To be noted: dose 80 g a.c./ha, scored after 3 to 4 weeks, Comparison Table 11. Here is the method:
as §2

For assay [5], the system named is Viola tricolor (VIOTR). The assay is described as above. Conditions: dose 80 g a.c./ha, scored after 3 to 4 weeks, Comparison Table 11. How it is done: as §2
In assay [6] the test system is Avena fatua (AVEFA). The assay can be described thus: Pre-emergence herbicidal action against weed plants. To be noted: dose 320 g a.c./ha, scored after 3 to 4 weeks, Comparison Table 4.
Excerpt: as §1

For assay [7], the system named is Matricaria inodora (MATIN). The assay is described as above. Conditions: dose 320 g a.c./ha, scored after 3 to 4 weeks, Comparison Table 4.
Excerpt: as §1

Assay [8] relates to Setaria viridis (SETVI). Described as above. Conditions: dose 80 g a.c./ha, scored after 3 to 4 weeks, Comparison Table 5.
Excerpt: as §1

The subject of assay [9] is Alopecurus myosuroides (ALOMY). As to the kind of experiment: Post-emergence herbicidal action against weed plants. To be noted: scored after 3 to 4 weeks. How it is done: as §2
The subject of assay [10] is Amaranthus retroflexus (AMARE). The description is as above. Conditions: dose 80 g a.c./ha, scored after 3 to 4 weeks, Comparison Table 8. Here is the method:
as §2

Assay [11] concerns Echinochloa crus galli (ECHCG). The assay is described as above. To be noted: dose 80 g a.c./ha, scored after 3 to 4 weeks. Here is the method:
as §2

The subject of assay [12] is Matricaria inodora (MATIN). Described as above. To be noted: dose 80 g a.c./ha, scored after 3 to 4 weeks. How it is done:
as §2

[13] abbreviates: dose 80 g a.c./ha, Comparison Table 2.
Where [14] appears, read: dose 80 g a.c./ha, Comparison Table 11.
Setting [15] is: dose 320 g a.c./ha, Comparison Table 1.
[16] abbreviates: dose 320 g a.c./ha, Comparison Table 3.
[17] abbreviates: dose 320 g a.c./ha, Comparison Table 4.
[18] abbreviates: dose 80 g a.c./ha, Comparison Table 5.
Where [19] appears, read: dose 80 g a.c./ha, Comparison Table 6.
[20] abbreviates: dose 80 g a.i./ha, Comparison Table 7.
[21] abbreviates: dose 80 g a.c./ha, Comparison Table 8.
The mark [22] stands for this setting: dose 80 g a.c./ha, Comparison Table 9.
[23] abbreviates: dose 80 g a.c./ha, Comparison Table 10.

The record followed here is patent US8603947B2, “(4-haloalkyl-3-thiobenzoyl)cyclohexanediones and use thereof as herbicides” (Bayer Cropscience AG, priority 2010, dated 2013).

`CCn1ncc(C(=O)c2ccc(C(F)(F)F)c([S+](C)[O-])c2C)c1O` (stereo not drawn): the “Herbicidal action against PHBPU” value in assay [1] (setting [13]) is recorded as 0%. The “Herbicidal action against VIOTR” value in [2] (setting [13]) is recorded as 50%.

For the molecule `Cc1nn(C)c(O)c1C(=O)c1ccc(C(F)(F)F)c(S(C)(=O)=O)c1C`, the “Herbicidal action against PHBPU” value in assay [3] (setting [14]) was 80%. In addition, in assay [4], the “Herbicidal action against SETVI” value was found to be 60%. The “Herbicidal action against VIOTR” value in [5] was found to be 80%.

For the molecule `Cc1c(C(=O)C2C(=O)C3CCC(C3)C2=O)ccc(C(F)(F)C(F)(F)F)c1[S+](C)[O-]` (stereo not drawn) [drawing 13], in assay [1] (setting [15]), the “Herbicidal action against PHBPU” value was 90%. In addition, in assay [2] (setting [15]), the “Herbicidal action against VIOTR” value came out at 100%.

As to `Cc1c(C(=O)c2cnn(C)c2O)ccc(C(F)(F)F)c1[S+](C)[O-]` (stereo not drawn) [drawing 14], in assay [1] (setting [15]), the “Herbicidal action against PHBPU” value turned out to be 50%. In assay [2] (setting [15]), the “Herbicidal action against VIOTR” value stood at 90%.

Take `Cc1c(C(=O)C2C(=O)C3CCC(C3)C2=O)ccc(C(F)(F)C(F)(F)F)c1[S+](C)[O-]` (stereo not drawn) [drawing 15]: the “Herbicidal action against PHBPU” value in assay [1] (setting [13]) amounted to 80%. The “Herbicidal action against VIOTR” value in [2] (setting [13]) is 100%.

On to `Cc1c(C(=O)C2C(=O)C3CCC(C3)C2=O)ccc(C(F)(F)C(F)(F)F)c1[S+](C)[O-]` (stereo not drawn) [drawing 17], for which the “Herbicidal action against PHBPU” value in assay [1] (setting [16]) came to 90%. In addition, the “Herbicidal action against VIOTR” value in [2] (setting [16]) is 100%.

On to `Cc1nn(C)c(O)c1C(=O)c1ccc(C(F)(F)F)c([S+](C)[O-])c1C` (stereo not drawn) [drawing 18], for which the “Herbicidal action against PHBPU” value in assay [1] (setting [16]) stood at 60%. Further, the “Herbicidal action against VIOTR” value in [2] (setting [16]) was 40%.

Consider `Cc1c(C(=O)C2C(=O)C3CCC(C3)C2=O)ccc(C(F)(F)C(F)(F)F)c1S(C)(=O)=O` (stereo not drawn) [drawing 19], for which, in assay [6], the “Herbicidal action against AVEFA” value was 80%. In addition, the “Herbicidal action against MATIN” value in [7] stood at 100%. Moreover, in assay [1] (setting [17]), the “Herbicidal action against PHBPU” value came out at 90%.

In the case of `CCn1ncc(C(=O)c2ccc(C(F)(F)F)c(S(C)(=O)=O)c2C)c1O` [drawing 20], the “Herbicidal action against AVEFA” value in assay [6] worked out at 40%. The “Herbicidal action against MATIN” value in assay [7] is 90%. In assay [1] (setting [17]), the “Herbicidal action against PHBPU” value is 50%.

Consider `Cc1c(C(=O)C2C(=O)C3CCC(C3)C2=O)ccc(C(F)(F)C(F)(F)F)c1S(C)(=O)=O` (stereo not drawn) [drawing 21], for which the “Herbicidal action against SETVI” value in assay [8] is on record as 100%. In addition, the “Herbicidal action against VIOTR” value in assay [2] (setting [18]) worked out at 100%.

For the molecule `Cc1c(C(=O)c2cnn(C)c2O)ccc(C(F)(F)F)c1S(C)(=O)=O` [drawing 22], the “Herbicidal action against SETVI” value in assay [8] was 60%. The “Herbicidal action against VIOTR” value in assay [2] (setting [18]) was determined as 50%.

As to `Cc1c(C(=O)C2C(=O)C3CCC(C3)C2=O)ccc(C(F)(F)C(F)(F)F)c1[S+](C)[O-]` (stereo not drawn) [drawing 23], the “Herbicidal action against ALOMY” value in assay [9] (setting [19]) is on record as 90%. Moreover, the “Herbicidal action against PHBPU” value in [3] (setting [19]) worked out at 100%.

In the case of `Cc1c(C(=O)c2cnn(C)c2O)ccc(C(F)(F)F)c1[S+](C)[O-]` (stereo not drawn) [drawing 24], the “Herbicidal action against ALOMY” value in assay [9] (setting [19]) was found to be 60%. In assay [3] (setting [19]), the “Herbicidal action against PHBPU” value is recorded as 60%.

In the case of `Cc1c(C(=O)C2C(=O)C3CCC(C3)C2=O)ccc(C(F)(F)C(F)(F)F)c1[S+](C)[O-]` (stereo not drawn) [drawing 25], the “Herbicidal action against ALOMY” value in assay [9] (setting [20]) stood at 90%. Moreover, in assay [3] (setting [20]), the “Herbicidal action against PHBPU” value is on record as 100%.

Consider `Cc1c(C(=O)c2cnn(C)c2O)ccc(C(F)(F)F)c1[S+](C)[O-]` (stereo not drawn) [drawing 26], for which the “Herbicidal action against ALOMY” value in [9] (setting [20]) stood at 60%. Also, the “Herbicidal action against PHBPU” value in assay [3] (setting [20]) was found to be 80%.

As for `Cc1c(C(=O)C2C(=O)C3CCC(C3)C2=O)ccc(C(F)(F)C(F)(F)F)c1[S+](C)[O-]` (stereo not drawn) [drawing 27], the “Herbicidal action against ALOMY” value in [9] (setting [21]) is given as 90%. The “Herbicidal action against AMARE” value in assay [10] is on record as 100%. The “Herbicidal action against PHBPU” value in [3] (setting [21]) is given as 100%.

Turning to `Cc1nn(C)c(O)c1C(=O)c1ccc(C(F)(F)F)c([S+](C)[O-])c1C` (stereo not drawn) [drawing 28], the “Herbicidal action against ALOMY” value in [9] (setting [21]) was determined as 30%. In addition, the “Herbicidal action against AMARE” value in assay [10] came to 50%. Moreover, the “Herbicidal action against PHBPU” value in assay [3] (setting [21]) is 50%.

Take `Cc1c(C(=O)C2C(=O)C3CCC(C3)C2=O)ccc(C(F)(F)C(F)(F)F)c1S(C)(=O)=O` (stereo not drawn) [drawing 29]: the “Herbicidal action against ECHCG” value in assay [11] (Comparison Table 9) was 100%. Moreover, the “Herbicidal action against MATIN” value in assay [12] (Comparison Table 9) is recorded as 100%. Moreover, in assay [3] (setting [22]), the “Herbicidal action against PHBPU” value is given as 90%.

As to `Cc1c(C(=O)c2cnn(C)c2O)ccc(C(F)(F)F)c1S(C)(=O)=O` [drawing 30], the “Herbicidal action against ECHCG” value in [11] (Comparison Table 9) is 95%. Also, in assay [12] (Comparison Table 9), the “Herbicidal action against MATIN” value was found to be 55%. Further, the “Herbicidal action against PHBPU” value in assay [3] (setting [22]) came to 80%.

For `Cc1c(C(=O)C2C(=O)C3CCC(C3)C2=O)ccc(C(F)(F)C(F)(F)F)c1S(C)(=O)=O` (stereo not drawn) [drawing 31], the “Herbicidal action against ECHCG” value in assay [11] (Comparison Table 10) came out at 100%. The “Herbicidal action against MATIN” value in [12] (Comparison Table 10) is 100%. The “Herbicidal action against PHBPU” value in assay [3] (setting [23]) is reported as 90%.

In the case of `CCn1ncc(C(=O)c2ccc(C(F)(F)F)c(S(C)(=O)=O)c2C)c1O` [drawing 32], the “Herbicidal action against ECHCG” value in assay [11] (Comparison Table 10) was determined as 90%. In addition, the “Herbicidal action against MATIN” value in assay [12] (Comparison Table 10) is listed as 90%. Besides, the “Herbicidal action against PHBPU” value in [3] (setting [23]) came out at 40%.

As for `Cc1c(C(=O)C2C(=O)C3CCC(C3)C2=O)ccc(C(F)(F)C(F)(F)F)c1S(C)(=O)=O` (stereo not drawn) [drawing 33], the “Herbicidal action against PHBPU” value in assay [3] (setting [14]) is on record as 90%. Also, the “Herbicidal action against SETVI” value in [4] turned out to be 100%. In [5], the “Herbicidal action against VIOTR” value turned out to be 100%.
